Legend:
[1] = molecular target: human A2b adenosine receptor (Homo sapiens (Human), UniProt P29275); test: A2b radioligand filtration binding assay (tritiated proprietary A2b antagonist, HEK293 membranes); conditions: for IC50: unstarred values: radioligand binding; for A2B binding % inh. @ 10000 nM: unstarred
Outline: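 Displacement of a tritiated proprietary A2b antagonist from membranes of HEK293 cells recombinantly expressing human A2b receptor, measured by filtration and scintillation counting. Percent effect was normalized to total and non-specific binding and fitted with a 4-parameter logistic to give IC50.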

[2] = molecular target: human A2a adenosine receptor (Homo sapiens (Human), UniProt P29274); test: A2a receptor affinity radioligand binding assay ([3H] SCH58261, membranes from HEK293 or CHO cells); conditions: unstarred values: radioligand binding
Outline: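 Displacement of tritiated SCH58261 (working dilution 4 nM) from recombinant human A2a receptor membranes (HEK293 or CHO), 60 min at room temperature in Tris pH 7.4/MgCl2 buffer after 15–30 min compound preincubation. Scintillation counting after filtration; normalized percent effect fitted 4-parameter logistic for IC50.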

Sequence of human A2a adenosine receptor (P29274 whole entry): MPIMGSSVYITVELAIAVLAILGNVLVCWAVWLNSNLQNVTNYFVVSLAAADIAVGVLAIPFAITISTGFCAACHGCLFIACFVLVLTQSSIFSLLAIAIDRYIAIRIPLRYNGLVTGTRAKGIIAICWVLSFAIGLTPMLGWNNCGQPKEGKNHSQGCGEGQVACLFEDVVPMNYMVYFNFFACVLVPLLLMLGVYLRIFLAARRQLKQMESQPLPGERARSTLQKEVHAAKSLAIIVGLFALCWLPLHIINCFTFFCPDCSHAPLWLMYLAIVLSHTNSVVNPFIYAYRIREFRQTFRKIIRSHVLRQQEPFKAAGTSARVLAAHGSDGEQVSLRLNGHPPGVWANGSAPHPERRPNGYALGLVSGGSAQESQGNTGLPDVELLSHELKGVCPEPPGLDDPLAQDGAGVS
Sequence of human A2b adenosine receptor (P29275 whole entry): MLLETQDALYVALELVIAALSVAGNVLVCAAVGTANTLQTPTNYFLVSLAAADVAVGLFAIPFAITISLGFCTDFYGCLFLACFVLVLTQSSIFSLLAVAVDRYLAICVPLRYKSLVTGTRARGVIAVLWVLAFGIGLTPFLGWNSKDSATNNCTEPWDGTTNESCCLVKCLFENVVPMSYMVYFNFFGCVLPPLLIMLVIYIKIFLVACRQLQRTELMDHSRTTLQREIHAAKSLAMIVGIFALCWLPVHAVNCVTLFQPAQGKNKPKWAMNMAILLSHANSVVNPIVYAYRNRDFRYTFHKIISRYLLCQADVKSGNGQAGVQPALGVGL

Row | IC50 [1] [nM] | IC50 [2] [nM] | A2B binding % inh. @ 10000 nM [1] [% inh. @ 10000 nM] | Structure (SMILES)
1 | 59.1 | 1.2 | – | COc1cccc2c1nc(N)n1nc([C@@H]3CCCN(c4ccc(F)cn4)C3)nc21 [Example 115, (R)-2-(1-(5-fluoropyridin-2-yl)piperidin-3-yl)-7-methoxy-[1,2,4]triazolo[1,5-c]quinazolin-5-amine]
2 | 431 | 0.9 | – | COc1cccc2c1nc(N)n1nc([C@@H]3CCCN(c4ncccn4)C3)nc21 [Example 117, (R)-7-methoxy-2-(1-(pyrimidin-2-yl)piperidin-3-yl)-[1,2,4]triazolo[1,5-c]quinazolin-5-amine]
3 | 284 | 3.6 | – | COc1cccc2c1nc(N)n1nc([C@@H]3CCCN(c4cnn(C5CS(=O)(=O)C5)c4)C3)nc21 [Example 121, (R)-3-(4-(3-(5-amino-7-methoxy-[1,2,4]triazolo[1,5-c]quinazolin-2-yl)piperidin-1-yl)-1H-pyrazol-1-yl)thietane 1,1-dioxide]
4 | 58.4 | 0.1 | – | COc1cccc2c1nc(N)n1nc([C@@H]3CCCN(c4cnn(C5CCS(=O)(=O)CC5)c4)C3)nc21 [Example 122, (R)-4-(4-(3-(5-amino-7-methoxy-[1,2,4]triazolo[1,5-c]quinazolin-2-yl)piperidin-1-yl)-1H-pyrazol-1-yl)tetrahydro-2H-thiopyran 1,1-dioxide]
5 | – | 862 | 18 | COc1cccc2c1nc(N)n1nc(C3CCCN(c4cnn(C)c4)[C@H]3C)nc21 (stereo partly shown) [Example 128A]
6 | – | 6300 | 14 | COc1cccc2c1nc(N)n1nc(C3CCCN(c4cnn(C)c4)[C@@H]3C)nc21 (stereo partly shown) [Example 128B]
7 | 1980 | 29 | – | COc1cccc2c1nc(N)n1nc([C@@H]3CCC[C@H](c4cnn(C)c4)C3)nc21 [Example 136D]
8 | 2460 | 167 | – | COc1cccc2c1nc(N)n1nc([C@H]3CCO[C@@H](c4cnn(C)c4)C3)nc21 [Example 139A]
9 | 1910 | 3.2 | – | COc1cccc2c1nc(N)n1nc([C@@H]3CCO[C@@H](c4cnn(C)c4)C3)nc21 [Example 139B]
10 | 1820 | 101 | – | COc1cccc2c1nc(N)n1nc([C@H]3CCO[C@H](c4cnn(C)c4)C3)nc21 [Example 139C]
11 | 5290 | 58.3 | – | COc1cccc2c1nc(N)n1nc([C@@H]3CCO[C@H](c4cnn(C)c4)C3)nc21 [Example 139D]
12 | 758 | 1.3 | – | CCn1cc(N2C[C@H](c3nc4c5cccc(OC)c5nc(N)n4n3)CC[C@H]2C)cn1 [Example 140B]
13 | 11.2 | 0.6 | – | CCn1cc(N2C[C@@H](c3nc4c5cccc(OC)c5nc(N)n4n3)CC[C@@H]2C)cn1 [Example 140C]
14 | 57.2 | 1.2 | – | COc1cccc2c1nc(N)n1nc([C@H]3CC[C@H](C)N(c4cn(CC(C)(C)O)nc4C)C3)nc21 [Example 145B]
15 | – | 80.5 | 74 | COc1cccc2c1nc(N)n1nc(C3CC(F)CN(c4cnn(CC5(O)CCC5)c4)C3)nc21 (stereo not shown) [Example 150, 1-((4-(3-(5-amino-7-methoxy-[1,2,4]triazolo[1,5-c]quinazolin-2-yl)-5-fluoropiperidin-1-yl)-1H-pyrazol-1-yl)methyl)cyclobutan-1-ol]
16 | – | 210 | 27 | COc1cccc2c1nc(N)n1nc(C3CC(F)CN(c4cn(CC(C)(C)O)nc4C)C3)nc21 (stereo not shown) [Example 151, 1-(4-(3-(5-amino-7-methoxy-[1,2,4]triazolo[1,5-c]quinazolin-2-yl)-5-fluoropiperidin-1-yl)-3-methyl-1H-pyrazol-1-yl)-2-methylpropan-2-ol]
17 | – | 249 | 38 | COc1cccc2c1nc(N)n1nc(C3CC(F)CN(c4cnn(CC(C)(C)O)c4C)C3)nc21 (stereo not shown) [Example 152, 1-(4-(3-(5-amino-7-methoxy-[1,2,4]triazolo[1,5-c]quinazolin-2-yl)-5-fluoropiperidin-1-yl)-5-methyl-1H-pyrazol-1-yl)-2-methylpropan-2-ol]

Row | IC50 [1] [nM] | IC50 [2] [nM] | A2B binding % inh. @ 10000 nM [1] [% inh. @ 10000 nM] | Structure (SMILES)
18 | 17.6 | 7.8 | – | COc1cccc2c1nc(N)n1nc([C@@H]3CCN(c4cnn(CC5CC5)c4)C3)nc21 [Example 162, (R)-2-(1-(1-(cyclopropylmethyl)-1H-pyrazol-4-yl)pyrrolidin-3-yl)-7-methoxy[1,2,4]triazolo[1,5-c]quinazolin-5-amine]
19 | 23.2 | 0.1 | – | COc1cccc2c1nc(N)n1nc(C3CCCCN(c4cn(C)nn4)C3)nc21 (stereo not shown) [Example 175]
20 | 189 | 0.7 | – | COc1ccc2c(c1)nc(N)n1nc([C@@H]3CCCN(c4cnn(CC5(O)CCC5)c4)C3)nc21 [Example 176]
21 | 2.5 | 2.1 | – | COc1ccc2c(c1)nc(N)n1nc([C@@H]3CCCN(c4cnn(CC(F)(F)F)c4)C3)nc21 [Example 178, (R)-8-methoxy-2-(1-(1-(2,2,2-trifluoroethyl)-1H-pyrazol-4-yl)piperidin-3-yl)-[1,2,4]triazolo[1,5-c]quinazolin-5-amine]
22 | 103 | 3.5 | – | COc1ccc2c(c1)nc(N)n1nc([C@@H]3CCCN(c4cnn(CC(C)(C)O)c4)C3)nc21 [Example 179, (R)-1-(4-(3-(5-amino-8-methoxy-[1,2,4]triazolo[1,5-c]quinazolin-2-yl)piperidin-1-yl)-1H-pyrazol-1-yl)-2-methylpropan-2-ol]
23 | 250 | 1 | – | COc1ccc2c(c1)nc(N)n1nc([C@@H]3CCCN(c4cn(CC(C)(C)O)nc4C)C3)nc21 [Example 180, (R)-1-(4-(3-(5-amino-8-methoxy-[1,2,4]triazolo[1,5-c]quinazolin-2-yl)piperidin-1-yl)-3-methyl-1H-pyrazol-1-yl)-2-methylpropan-2-ol]
24 | 104 | 0.3 | – | COc1ccc2c(c1)nc(N)n1nc([C@@H]3CCCN(c4cnn(CC(C)(C)O)c4C)C3)nc21 [Example 181, (R)-1-(4-(3-(5-amino-8-methoxy-[1,2,4]triazolo[1,5-c]quinazolin-2-yl)piperidin-1-yl)-5-methyl-1H-pyrazol-1-yl)-2-methylpropan-2-ol]
25 | 188 | 1.3 | – | COc1ccc2c(c1)nc(N)n1nc([C@@H]3CCCN(c4cnn([C@H]5C[C@@](C)(O)C5)c4)C3)nc21 [Example 182, (1S,3s)-3-(4-((R)-3-(5-amino-8-methoxy-[1,2,4]-triazolo[1,5-c]quinazolin-2-yl)piperidin-1-yl)-1H-pyrazol-1-yl)-1-methylcyclobutan-1-ol]
26 | 4070 | 157 | – | COc1ccc2c(c1)nc(N)n1nc([C@@H]3CCCN(c4cnn(CC5(CF)COC5)c4)C3)nc21 [Example 183, (R)-2-(1-(1-((3-(fluoromethyl)oxetan-3-yl)methyl)-1H-pyrazol-4-yl)piperidin-3-yl)-8-methoxy-[1,2,4]triazolo[1,5-c]quinazolin-5-amine]
27 | 98.1 | 0.8 | – | COc1ccc2c(c1)nc(N)n1nc([C@@H]3CCCN(c4cnn([C@H](C)C(C)(C)O)c4)C3)nc21 [Example 185A]
28 | 116 | 1 | – | COc1ccc2c(c1)nc(N)n1nc([C@@H]3CCCN(c4cnn([C@@H](C)C(C)(C)O)c4)C3)nc21 [Example 185B, (S)-3-(4-((R)-3-(5-amino-8-methoxy-[1,2,4]triazolo[1,5-c]quinazolin-2-yl)piperidin-1-yl)-1H-pyrazol-1-yl)-2-methylbutan-2-ol]
29 | 462 | 0.4 | – | COc1ccc2c(c1)nc(N)n1nc([C@@H]3CCCN(c4cn([C@H](C)C(C)(C)O)nc4C)C3)nc21 [Example 186A]
30 | 323 | 0.4 | – | COc1ccc2c(c1)nc(N)n1nc([C@@H]3CCCN(c4cn([C@@H](C)C(C)(C)O)nc4C)C3)nc21 [Example 186B, (S)-3-(4-((R)-3-(5-amino-8-methoxy-[1,2,4]triazolo[1,5-c]quinazolin-2-yl)piperidin-1-yl)-3-methyl-1H-pyrazol-1-yl)-2-methylbutan-2-ol]
31 | 1290 | 2.8 | – | COc1ccc2c(c1)nc(N)n1nc([C@@H]3CCCN(c4cnn([C@@H]5CCC[C@H]5O)c4)C3)nc21 [Example 187A, (1R,2R)-2-(4-((R)-3-(5-amino-8-methoxy-[1,2,4]triazolo[1,5-c]quinazolin-2-yl)piperidin-1-yl)-1H-pyrazol-1-yl)cyclopentan-1-ol]
32 | – | 406 | 16 | COc1ccc2c(c1)nc(N)n1nc([C@@H]3CCCN(c4cnn([C@H]5CCC[C@@H]5O)c4)C3)nc21 [Example 187B, (1S,2S)-2-(4-((R)-3-(5-amino-8-methoxy-[1,2,4]triazolo[1,5-c]quinazolin-2-yl)piperidin-1-yl)-1H-pyrazol-1-yl)cyclopentan-1-ol]
33 | 44.6 | 0.7 | – | COc1ccc2c(c1)nc(N)n1nc([C@@H]3CCCN(c4cnn(C(C)(C)CO)c4)C3)nc21 [Example 188, (R)-2-(4-(3-(5-amino-8-methoxy[1,2,4]triazolo[1,5-c]quinazolin-2-yl)piperidin-1-yl)-1H-pyrazol-1-yl)-2-methylpropan-1-ol]
34 | 228 | 0.6 | – | COc1ccc2c(c1)nc(N)n1nc([C@@H]3CCCN(c4cnn([C@H](C)C(C)(C)O)c4C)C3)nc21 [Example 189A, (R)-3-(4-((R)-3-(5-amino-8-methoxy[1,2,4]triazolo[1,5-c]quinazolin-2-yl)piperidin-1-yl)-5-methyl-1H-pyrazol-1-yl)-2-methylbutan-2-ol]

Row | Structure (SMILES) | IC50 [1] [nM] | IC50 [2] [nM] | A2B binding % inh. @ 10000 nM [1] [% inh. @ 10000 nM]
35 | COc1cccc2c1nc(N)n1nc(C3CC(F)CN(c4cnn(CC(C)(C)O)c4)C3)nc21 (stereo not shown) [Example 149] | – | 200 | 32

Source: patent US12263171B2, “7-, 8-, and 10-substituted amino triazolo quinazoline derivatives as adenosine receptor antagonists, pharmaceutical compositions and their use” (Merck Sharp & Dohme LLC, priority 2018, dated 2025)
